Data from patent US4383113A, “Agricultural sulfonamides” (E. I. Du Pont de Nemours and Company, priority 1981, dated 1983).

Legend:
purple nutsedge [1] = experiment: Test F soil surface spray; type: in vivo, Cyperus rotundus
Text: (§1) Purple nutsedge tubers (Cyperus rotundus) were planted about 2 cm deep in Fallsington silt loam contained in plastic pots 10 cm in diameter. Five tubers were put in each pot. Compounds of this invention were sprayed dissolved in a non-phytotoxic solvent at a volume rate of 560 l/ha. in four different methods of treatment, i.e., soil surface spray, tuber/soil spray, soil incorporated and post-emergence. For the soil surface spray, the compounds were sprayed on the firmed soil surface immediately after planting. For the tuber/soil spray, the compounds were sprayed on the exposed tubers and subtending soil before the untreated covering soil was added. Soil incorporation treatments were mixed in the covering soil. Post-emergence treatments were sprayed on the nutsedge foliage and surrounding soil surface after the nutsedge had emerged and had reached the height of about 12 cm.
(§2) Immediately after spraying the surface spray, tuber/soil spray and soil incorporated treatments were misted with about 0.3 cm of water over a 90 minute period and then placed in the greenhouse. Post-emergence treatments were placed directly into the greenhouse and watered carefully so that treatments would not be washed from the foliage.

purple nutsedge [2] = experiment: Test F tuber/soil spray; type: in vivo, Cyperus rotundus
Text: as §1, §2

purple nutsedge [3] = experiment: Test F soil incorporated; type: in vivo, Cyperus rotundus
Text: as §1, §2

purple nutsedge [4] = experiment: Test F post-emergence; type: in vivo, Cyperus rotundus
Text: as §1, §2

broadleaves = experiment: Test K field post-emergence; type: in vivo; settings: 16 weeks
Description: (§3) The response of a number of noxious weed species to post-emergence applications of the same compound as used in Test J was studied in another field test. At the time of treatment, one month after mowing, the mixed vegetation was approximately 15 cm tall. The chemical was applied in water containing 0.2% of Surfactant WK® at an overall volume of 500 l/ha. Each treatment was replicated three times. Approximately 5 cm of rainfall was recorded 4 days after treatment and an additional 37 cm fell before weed control ratings were made 16 weeks after treatment.

broomsedge = experiment: Test K field post-emergence; type: in vivo; settings: 16 weeks
Description: as §3

dewberry = experiment: Test K field post-emergence; type: in vivo; settings: 16 weeks
Description: as §3

golden rod = experiment: Test K field post-emergence; type: in vivo; settings: 16 weeks
Description: as §3

grasses = experiment: Test K field post-emergence; type: in vivo; settings: 16 weeks
Description: as §3

[5] = system: mixed vegetation, overall; experiment: Test K field post-emergence; type: in vivo; settings: 16 weeks
Description: as §3

poison ivy = experiment: Test K field post-emergence; type: in vivo; settings: 16 weeks
Description: as §3

purpletop = experiment: Test K field post-emergence; type: in vivo; settings: 16 weeks
Description: as §3

COC(=O)c1ccccc1S(=O)(=O)NC(=O)Nc1nnc(C)c(C)n1 [drawing 597]
response rating after 4 weeks (purple nutsedge [1]; .032 kg/ha): 2G | response rating after 4 weeks (purple nutsedge [2]; .032 kg/ha): 2G | response rating after 4 weeks (purple nutsedge [3]; .032 kg/ha): 3G | response rating after 4 weeks (purple nutsedge [4]; .032 kg/ha): 0 | response rating after 4 weeks (purple nutsedge [4]; .125 kg/ha): 9C | response rating after 4 weeks (purple nutsedge [4]; .5 kg/ha): 10C

COc1nc(NC(=O)NS(=O)(=O)c2ccccc2C(=O)OC(C)C)nc(OC)n1 [drawing 600]
response rating after 4 weeks (purple nutsedge [1]; .004 kg/ha): 8G | response rating after 4 weeks (purple nutsedge [1]; .008 kg/ha): 8G | response rating after 4 weeks (purple nutsedge [2]; .004 kg/ha): 7G | response rating after 4 weeks (purple nutsedge [2]; .008 kg/ha): 8G | response rating after 4 weeks (purple nutsedge [3]; .004 kg/ha): 8G | response rating after 4 weeks (purple nutsedge [3]; .008 kg/ha): 8G | response rating after 4 weeks (purple nutsedge [4]; .004 kg/ha): 8C | response rating after 4 weeks (purple nutsedge [4]; .008 kg/ha): 9C | response rating after 4 weeks (purple nutsedge [4]; .016 kg/ha): 9C | response rating after 4 weeks (purple nutsedge [4]; .032 kg/ha): 10C

COC(=O)c1cc(Cl)ccc1S(=O)(=O)NC(=O)Nc1nc(OC)nc(OC)n1 [drawing 603]
response rating after 4 weeks (purple nutsedge [1]; .008 kg/ha): 3G | response rating after 4 weeks (purple nutsedge [1]; .032 kg/ha): 7G | response rating after 4 weeks (purple nutsedge [1]; .125 kg/ha): 9G | response rating after 4 weeks (purple nutsedge [2]; .008 kg/ha): 4G | response rating after 4 weeks (purple nutsedge [2]; .032 kg/ha): 7G | response rating after 4 weeks (purple nutsedge [2]; .125 kg/ha): 9G | response rating after 4 weeks (purple nutsedge [3]; .008 kg/ha): 5G | response rating after 4 weeks (purple nutsedge [3]; .032 kg/ha): 7G | response rating after 4 weeks (purple nutsedge [3]; .125 kg/ha): 9G | response rating after 4 weeks (purple nutsedge [4]; .008 kg/ha): 3G | response rating after 4 weeks (purple nutsedge [4]; .125 kg/ha): 10C

COC(=O)c1cc(Cl)ccc1S(=O)(=O)NC(=O)Nc1nc(C)cc(OC)n1 [drawing 604]
response rating after 4 weeks (purple nutsedge [1]; .032 kg/ha): 9G | response rating after 4 weeks (purple nutsedge [2]; .008 kg/ha): 7G | response rating after 4 weeks (purple nutsedge [3]; .008 kg/ha): 7G | response rating after 4 weeks (purple nutsedge [4]; .032 kg/ha): 9C | response rating after 4 weeks (purple nutsedge [4]; .125 kg/ha): 9C

COC(=O)c1ccccc1S(=O)(=O)NC(=O)Nc1nc(C)cc(C)n1 [drawing 613]
mean % weed control (broadleaves; 1.0 kg/ha): 96% | mean % weed control (broadleaves; 2.0 kg/ha): 98% | mean % weed control (broadleaves; .5 kg/ha): 91% | mean % weed control (broomsedge; 1.0 kg/ha): 73% | mean % weed control (broomsedge; 2.0 kg/ha): 86% | mean % weed control (broomsedge; .5 kg/ha): 71% | mean % weed control (dewberry; 1.0 kg/ha): 100% | mean % weed control (dewberry; 2.0 kg/ha): 100% | mean % weed control (dewberry; .5 kg/ha): 97% | mean % weed control (golden rod; 1.0 kg/ha): 100% | mean % weed control (golden rod; 2.0 kg/ha): 100% | mean % weed control (golden rod; .5 kg/ha): 100% | mean % weed control (grasses; 1.0 kg/ha): 84% | mean % weed control (grasses; 2.0 kg/ha): 93% | mean % weed control (grasses; .5 kg/ha): 81% | mean % weed control ([5]; 1.0 kg/ha): 90% | mean % weed control ([5]; 2.0 kg/ha): 94% | mean % weed control ([5]; .5 kg/ha): 81% | mean % weed control (poison ivy; 1.0 kg/ha): 85% | mean % weed control (poison ivy; 2.0 kg/ha): 95% | mean % weed control (poison ivy; .5 kg/ha): 67% | mean % weed control (purpletop; 1.0 kg/ha): 80% | mean % weed control (purpletop; 2.0 kg/ha): 92% | mean % weed control (purpletop; .5 kg/ha): 73%
